Columns and labels:
[1] = Thermodynamic solubility of salts in water; assay type: physicochemical; conditions: for Solubility: 37° C., pH 6.8-7.4, stirring 500 rpm, 24 hours
Procedure: Each of the sodium, potassium, L-Arg and L-Lys salts prepared as described above was dissolved in water at a temperature of 37° C., pH 6.8-7.4 at a stirring rate of 500 rpm for 24 hours.

[2] = Stability of salts on storage at room temperature and 80% relative humidity (XRPD); assay type: physicochemical; conditions: for changes in the XRPD pattern after storage: 7 days at room temperature and 80% relative humidity
Procedure: Each of the salts obtained was characterized by X-ray powder diffraction (XRPD), Thermogravimetric analysis (TGA), and Differential Scanning calorimetry (DSC). Furthermore, the stabilities of the sodium, potassium, L-Arginine and L-Lysine salts were tested by storage for 7 days at room temperature and 80% relative humidity.

In the case of O=C(O)C1(c2ccc(-c3ccc(Cl)c(Cl)c3)c(F)c2)CC1 [L-Arginine, 1-(3′,4′-dichloro-2-fluorobiphenyl-4-yl)cyclopropanecarboxylic acid], the “solubility in water (in words)” value [1] is reported as “excellent solubility”, the “Solubility” value [1] is reported as 15.2 mg/mL and the “changes in the XRPD pattern after storage” value (“changes in the XRPD pattern” for short) [2] is reported as “No changes”. For the same compound, the “stability when stored under conditions of high humidity (in words)” value (“stability when stored under conditions” for short) [2] was “good stability”.

For O=C(O)C1(c2ccc(-c3ccc(Cl)c(Cl)c3)c(F)c2)CC1 [L-Lysine, 1-(3′,4′-dichloro-2-fluorobiphenyl-4-yl)cyclopropanecarboxylic acid], the “solubility in water (in words)” value [1] was “excellent solubility”, the “Solubility” value [1] was 36.6 mg/mL and the “changes in the XRPD pattern” value [2] was “No changes”. The “stability when stored under conditions” value [2] was “good stability”.

With O=C(O)C1(c2ccc(-c3ccc(Cl)c(Cl)c3)c(F)c2)CC1 [Potassium, 1-(3′,4′-dichloro-2-fluorobiphenyl-4-yl)cyclopropanecarboxylic acid] the “solubility in water (in words)” value [1] was “excellent solubility”, the “Solubility” value [1] was 6.3 mg/mL and the “changes in the XRPD pattern” value [2] was “No changes”. The “stability when stored under conditions” value [2] was “good stability”.

In the case of O=C(O)C1(c2ccc(-c3ccc(Cl)c(Cl)c3)c(F)c2)CC1 [Sodium, 1-(3′,4′-dichloro-2-fluorobiphenyl-4-yl)cyclopropanecarboxylic acid], the “solubility in water (in words)” value [1] is reported as “excellent solubility”, the “Solubility” value [1] is reported as 20.4 mg/mL and the “changes in the XRPD pattern” value [2] is reported as “No changes”. The “stability when stored under conditions” value [2] was “good stability”.

From patent US20160193165A1, “NOVEL POLYMORPHS AND SALTS” (CHIESI FARMACEUTICI S.p.A., priority 2010, published 2016)
